Data reported in patent US6514761B1, “Methods of using BCL-2 for the therapeutic treatment and prevention of diseases” (The Burnham Institute, priority 1993, dated 2003).

What was measured:
32D-3 cells [1] = experiment: Survival of transfected 32D-3 cells cultured without growth factor; type: cell-based; conditions: 32D-3 cells expressing the protein, growth factor deprivation
Excerpt: FIGS. 5A and 5B. Homologs of Bcl-2 prolong survival of 32D-3 cells grown in the absence of Il-3 for various times. Cell viability as determined by the trypan blue exclusion (mean +/− standard deviation of 3 determinations).
FIGS. 6A to 6C. Bcl-2 acts synergistically with Raf-1 to prolong cell survival under conditions of growth factor deprivation. Bcl-2 protein, alone (open circles); activated Raf-1 protein, alone (squares); Bcl-2+Raf-1 proteins (closed circles); no Bcl-2 or Raf-1 protein (triangles).
FIG. 7. A dominant-negative form of the Bcl-2 protein, Bcl-2β, accelerates cell death. Cell viability as determined by trypan blue exclusion. […]
32D-3 cells were stably transfected with expression plasmids containing either a hygromyin (HYG) or a G418 (NEO) antibiotic resistance gene and cDNA encoding either the human Bcl-2 protein, the chicken Bcl-2 protein or the BHRF-1 protein from Epstein Barr Virus (viral homolog of Bcl-2). […] Following transfection, cells were cultured without growth factor for various times and the number of viable cells was determined.
32D-3 cells were stably transfected with expression plasmids producing Bcl-2 protein, activated Raf-1 protein or both Bcl-2 and Raf-1, then cultured under conditions of growth factor deprivation that cause apoptosis. At various times after removing the growth factor from the medium, cells were collected and viability was determined. […]

PC12 cells = experiment: Glutamate-induced death of PC12 cells (MTT dye reduction assay); type: cell-based, rat; conditions: PC12 cells infected with pZIP-BCL-2; 30 mM glutamate, 24 hours
Experimental: FIG. 4. Protection of PC12 cells from glutamate-induced death by Bcl-2. Cell viability as determined by MTT dye reduction assay (mean +/− standard deviation of 3 determinations).
The rat pheochromocytoma cell line, PC12, was stably infected with pZIP-BCL-2 or pZIP-NEO (see FIG. 1B), then treated with 30 mM glutamate for 24 hours. Following treatment, cell viability was assessed by MTT dye reduction assay as described in Tada et al., J. Immunol. Meth. 93:157-165 (1986).

[2] = system: in vitro self-assembled nuclei; experiment: Cell-free apoptosis assay: nuclei assembled in Xenopus egg extracts with sperm chromatin; design: species or system Xenopus laevis
Experimental: A cell-free assay for assessing Bcl-2 function was developed to rapidly screen compounds for ability to inhibit or enhance Bcl-2 protein function. The assay utilizes in vitro self-assembled nuclei generated by mixing cell extracts derived from Xenopus laevis eggs with isolated sperm chromatin. The nuclei assemble normally but, after about 2 hours, begin to disintegrate. The nuclei appeared contracted and had the same appearance as isolated nuclei that had been treated briefly with an endonuclease. This phenomenon appears to represent apoptosis. Alternatively, isolated hepatocyte nuclei can be substituted for sperm chromatin and mixed with the egg extracts, resulting in the same phenomenon.
To test the effect of Bcl-2 protein on nuclei, lysates were prepared from Sf9 insect cells infected with recombinant baculoviruses encoding either Bcl-2 or an irrelevant protein such as β-galactosidase (β-gal) or the Lck kinase (see Reed et al., Anal. Biochem. 205:70-76 (1992). To confirm that Bcl-2 was expressed in the insect cell lysates, Sf9 insect cells were infected with recombinant Bcl-2 baculovirus or recombinant Lck baculovirus vectors. Infected cells were incubated for three days to allow expression of the gene products, then lysates were obtained and fractionated by SDS-PAGE electrophoresis. Following electrophoresis, proteins were transferred to membrane and probed with an antiserum raised against a synthetic peptide corresponding to part of the predicted amino acid sequence of human Bcl-2. […] Bcl-2 protein comprised about 5-10% of the total extracted protein.
Sf9 cell lysates were added at a 1:90 dilution into the Xenopus extracts or to a final protein concentration of 10 μg/ml (see Newmeyer and Wilson, Meth. Cell Biol. 36:607-634 (1991), which is incorporated herein by reference). […] After about another 40 min of incubation, the nuclei had disintegrated completely (FIG. 9B) and a generally dispersed filamentous background of Hoechst fluorescence remained along with many small spherical or irregularly shaped aggregates of chromatin (not shown). […]

AT-3 cells = experiment: Sindbis virus-induced death of AT-3 prostate cancer cells (trypan blue exclusion); type: cell-based, rat; conditions: AT-3 cells infected with pZIP-BCL2, grown with Sindbis virus
Excerpt: FIG. 3. Bcl-2 blocks prostate cancer cell line, AT-3, death induced by Sindbis virus infection. Cell viability as determine by trypan blue exclusion (mean +/− standard deviation of 3 determinations). pZIP-BCL2 or pZIP-NEO are described in FIG. 1B. AT-3-NEO control cells (circles); AT-3-BCL2 cells (squares). Virus infected cells (solid symbols); cells cultured in the absence of virus (open symbols).
A rat prostate cancer cell line, AT-3, was infected with pZIP-BCL2 or pZIP-NEO (see FIG. 1B), then grown in the presence or absence of Sindbis virus. At various times after the addition of Sindbis virus, cells were collected and cell viability was determine using trypan blue exclusion.

32D-3 cells [3] = experiment: Viability of stably transfected 32D-3 cells in culture (trypan blue exclusion); type: cell-based; conditions: cells expressing the protein, followed over days in culture, versus Neo control
Excerpt: FIG. 2A. Cell viability as determined by trypan blue exclusion (mean +/− standard deviation of 3 determinations). W.T., wild-type Bcl-2; P59S, mutant Bcl-2; Neo, control.
32D-3 cells were stably transfected with expression plasmids containing a G418 antibiotic resistance gene and either a wild-type or mutant human Bcl-2 DNA sequence. The mutant Bcl-2 sequence encodes a variant Bcl-2 protein having a serine substitution for a proline at amino acid position 59 (BCL2/P59S). This amino acid substitution results in a high level of constitutive expression of BCL2/P59S.
Following selection of the cells for G418 resistance, cells were plated and their viability was determined.

| Molecule | cell viability / survival without growth factor (32D-3 cells [1]) | protection from glutamate-induced cell death (PC12 cells) | intact, transport-competent nuclei ([2]; after 2 hours of incubation, Bcl-2-containing Sf9 lysate added to Xenopus extract) | nuclei remaining intact and transport-competent ([2]; after two hours and forty min incubation, Bcl-2-containing Sf9 lysate) [%] | amount of fluorescent transport substrate imported by nuclei ([2]; in one hour, Bcl-2-containing lysate) | protection from Sindbis virus-induced cell death (AT-3 cells) | number of viable cells in culture (32D-3 cells [3]) |
| --- | --- | --- | --- | --- | --- | --- | --- |
| Bcl-2: about 26 kDa protein that promotes cell survival by blocking apoptosis; expressed by gene transfer or added as Sf9 lysate | modest effect | protected the PC12 cells from glutamate-induced death | about 50% | 42 | no gross changes | protected from Sindbis virus-induced death | did not decrease during the time examined |
| chicken Bcl-2: chicken Bcl-2 homolog expressed from cDNA in 32D-3 cells (protein, UniProt Q00709 1-233, looked up) Apoptosis regulator Bcl-2: MAHPGRRGYDNREIVLKYIHYKLSQRGYDWAAGEDRPPVPPAPAPAAAPAAVAAAGASSHHRPEPPGSAAASEVPPAEGLRPAPPGVHLALRQAGDEFSRRYQRDFAQMSGQLHLTPFTAHGRFVAVVEELFRDGVNWGRIVAFFEFGGVMCVESVNREMSPLVDNIATWMTEYLNRHLHNWIQDNGGWDAFVELYGNSMRPLFDFSWISLKTILSLVLVGACITLGAYLGHK | nearly as effective as the human Bcl-2 |  |  |  |  |  |  |
